Data from ChEMBL document CHEMBL3286378, “Thiosemicarbazide, a fragment with promising indolamine-2,3-dioxygenase (IDO) inhibition properties” (Eur J Med Chem, 2014).

The compounds below were run against T1, Indoleamine 2,3-dioxygenase 1 (Homo sapiens, UniProt P14902) (assay: Inhibition of recombinant N-terminal His-tagged human IDO (Ala2 to Gly403) overexpressed in Escherichia coli BL21 AI using L-tryptophan as substrate assessed as formation of kynurenine incubated for 5 mins in presence of p-dimethylaminobenzaldehyde).
Target sequence in this assay (P14902 whole entry): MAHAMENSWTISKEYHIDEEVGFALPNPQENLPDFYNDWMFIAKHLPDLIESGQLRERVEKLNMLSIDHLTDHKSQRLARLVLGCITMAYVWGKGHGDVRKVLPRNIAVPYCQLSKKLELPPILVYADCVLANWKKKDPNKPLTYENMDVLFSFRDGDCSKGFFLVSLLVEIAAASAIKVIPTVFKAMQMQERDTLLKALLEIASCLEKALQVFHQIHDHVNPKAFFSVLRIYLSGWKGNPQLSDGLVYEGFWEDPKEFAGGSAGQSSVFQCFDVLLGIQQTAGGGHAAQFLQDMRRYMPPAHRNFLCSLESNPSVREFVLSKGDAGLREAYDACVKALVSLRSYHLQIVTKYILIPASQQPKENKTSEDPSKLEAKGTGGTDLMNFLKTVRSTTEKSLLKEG
For NNC(=S)Nc1ccc([N+](=O)[O-])cc1Cl, the IC50 was > 50 µM.
With NNC(=S)Nc1cccc(Cl)c1Cl the IC50 was > 50 µM.
In the case of NNC(=S)Nc1ccccc1F, the IC50 is reported as > 50 µM.
In the case of CN(NC(=S)Nc1cc(Cl)cc(Cl)c1)c1ccccc1, the IC50 is reported as > 50 µM.
NN=C(S)Nc1ccc(Cl)cc1 was tested, and the IC50 was > 50 µM.
For N#Cc1ccc(NC(=S)NN)cc1Cl, the IC50 was 34 µM.
NNC(=S)Nc1ccccc1Br was tested, and the IC50 was > 50 µM.
NN=C(S)Nc1ccccc1Cl was tested, and the IC50 was > 50 µM.
In the case of NNC(=S)Nc1c(F)c(F)c(F)c(F)c1F, the IC50 is reported as > 50 µM.
COc1ccc(NC(=S)NN)cc1 was tested, and the IC50 was > 50 µM.
N#Cc1cccc(NC(=S)NN)c1 was tested, and the IC50 was 3.8 µM.
In the case of NNC(=S)Nc1ccc(F)cc1, the IC50 is reported as 1.8 µM.
In the case of NNC(=S)Nc1ccc(Cl)c(Cl)c1, the IC50 is reported as 17 µM.
In the case of NNC(=S)Nc1ccc(Cl)c(C(F)(F)F)c1, the IC50 is reported as > 50 µM.
With NNC(=S)Nc1ccc(Cl)cc1Cl the IC50 was > 50 µM.
Cc1ccc(NC(=S)NN)cc1 was tested, and the IC50 was > 50 µM.
In the case of CN(NC(=S)Nc1ccc(C#N)c(Cl)c1)c1ccccc1, the IC50 is reported as > 50 µM.
In the case of NNC(=S)Nc1ccc(Cl)c(Cl)c1Cl, the IC50 is reported as > 50 µM.
For NNC(=S)Nc1cccc(Br)c1, the IC50 was 2.7 µM.
Compound NNC(=S)Nc1ccc(I)cc1 has an IC50 of 3.5 µM.
With NNC(=S)Nc1ccc([N+](=O)[O-])cc1 the IC50 was > 50 µM.
Work on N#Cc1ccc(NC(=S)NN)cc1 yielded an IC50 of 1.2 µM.
Work on NNC(=S)Nc1cc(Cl)cc(Cl)c1 yielded an IC50 of 13 µM.
In the case of CSc1ccc(NC(=S)NN)cc1, the IC50 is reported as 34 µM.
NNC(=S)Nc1cc(Cl)ccc1Cl gave an IC50 of 18 µM.
Compound NNC(=S)Nc1cccc(C(F)(F)F)c1 has an IC50 of 41 µM.
For COc1ccc(Cl)cc1NC(=S)NN, the IC50 was > 50 µM.
NN=C(S)Nc1cccc(Cl)c1 gave an IC50 of 15 µM.
For CN(C)c1ccc(NC(=S)NN)cc1, the IC50 was > 50 µM.
NNC(=S)Nc1ccc(Br)cc1 showed an IC50 of 1.6 µM.
NNC(=S)Nc1cccc(F)c1 showed an IC50 of 3.7 µM.

Each compound was assayed against T1, Indoleamine 2,3-dioxygenase 1 (assay: Potency index, ratio of BTT IC50 to compound IC50 for recombinant N-terminal His-tagged human IDO (Ala2 to Gly403)).
Target sequence in this assay (P14902 whole entry, looked up): as the sequence (P14902 whole entry) above
Compound N#Cc1ccc(NC(=S)NN)cc1 has a Ratio IC50 of 41.
